Columns and labels:
Format in all cases: cell-based, human
[1] = system: PARP; assay: PARP cleavage (p84) by Western blot, densitometry
Description: Whole-cell protein extracts were prepared as described previously (Yu et al., 1999), and 50 μg of protein was loaded per lane, separated using SDS-PAGE on a 10-15% gel under reducing conditions, and electroblotted onto a nitrocellulose membrane ([…] Optitran BA-S-supported nitrocellulose; Schleicher and Schuell, Keene, N.H.). Equal loading was verified using GAPDH antibody. Primary rabbit antibodies with specificity for PARP and primary goat antibody with specificity for Arg were purchased from Santa Cruz Biotechnology (Santa Cruz, Calif.). Horseradish peroxidase conjugated goat anti-rabbit or horseradish goat anti-mouse secondary antibody was purchased from Jackson Immunoresearch Laboratory (West Grove, Pa.). Horseradish peroxidase-conjugated donkey anti-goat serum was purchased from Santa Cruz Biotechnology. Immune complexes were visualized using enhanced chemiluminescence detection (Pierce Chemical Co., Rockford, Ill.). Fold differences in level of chemiluminescence were determined by densitometric analyses.
Primary mouse antibody specific for p73 was purchased from IMGENEX (San Diego, Calif.). Primary mouse antibody specific for caspase 8 was purchased from Cell Signaling Technology (Beverly, Mass.). Horseradish peroxidase conjugated goat anti-rabbit or goat anti-mouse secondary antibodies were purchased from Jackson Immunoresearch Laboratory (West Grove, Pa.). Horseradish peroxidase-conjugated donkey […] serum was purchased from Santa Cruz Biotechnology. Immune complexes were visualized using enhanced chemiluminescence detection (Pierce Chemical Co., Rockford, Ill.). Fold differences in level of chemiluminescence were determined by densitometric analyses.

[2] = system: c-Jun; assay: c-Jun phosphorylation (JNK substrate) by Western blot
Description: Similar results were also observed in α-TEA treated MCF-7 cells in the presence of JNK inhibitor II (7.5 μM of JNK inhibitor II (Calbiochem-Novabiochem Corp. San Diego, Calif.) vs. DMSO control). Specifically, 68% reduction in the level of phosphorylated c-Jun (FIG. 11B, top panel), almost 100% reduction in NOXA expression (FIG. 11B, second panel), and 29% reduction in the level of PARP cleavage (FIG. 11B, third panel).
JNK siRNA was used to determine if JNK was involved in α-TEA regulation of NOXA expression. MDA-MB-435 and MCF-7 cells were transiently transfected with siRNA specific for JNK1/2 (JNK1/2 sense (5′-AAA GAA UGU CCU ACC UUC Utt-3′), JNK1/2 antisense (5′AGA AGG UAG GAC AUU CUU Utt-3′)). The cells were then treated with α-TEA for 15 h, or 20 h, respectively. […] Likewise in MCF-7 cells JNK siRNA blocked JNK1 phosphorylation by 26% (FIG. 11D, first panel), blocked c-Jun phosphorylation by 36% (FIG. 1D, second panel), reduced protein levels of full length p73 by 66% (FIG. 1D, third panel), reduced protein levels of NOXA by 14% (FIG. 1D, fourth panel), and reduced level of PARP cleavage by 44% (FIG. 11D, fifth panel). Anti-p73 antibodies used in the foregoing experiment were purchases from IMGENEX (San Diego, Calif.).

[3] = system: NOXA; assay: NOXA mRNA (RT-PCR) and protein (Western blot) levels
[4] = system: Akt; assay: Western blot of phosphorylated Akt (Ser 473) and total Akt in prostate cancer cells
Excerpt: Previous studies have shown that α-TEA is an effective inducer of apoptosis in human prostate cancer cells (Anderson et al., 2004). Dose- and time-dependent pro-apoptotic effects of α-TEA in prostate cancer cells are mediated by Fas/FADD/caspase-8/tBid and Fas/Daxx/Ask1/JNK1/2/Bax, leading to activation of caspases-9 and -3. Thus, the Akt inhibiting activity of α-TEA was investigated in prostate cancer cells. Since phosphorylation of Akt at Ser 473 is required for its full activation (Cheng et al., 2005), we examined the phosphorylation status of Akt using an antibody that specifically recognizes Akt phosphorylated at Ser 473 in all three Akt isoforms (Upstate Cell Signaling Solutions (Charlottesville, Va.)). α-TEA decreased the levels of the phosphorylated forms of Akt. […] As verification that the decreases in phosphorylation status of Akt correlated with decreased kinase activity, the phosphorylation status of GSK3β, a downstream Akt target, was evaluated following α-TEA treatments. […] GAPDH levels were assayed with each immunoblot assay as a protein loading control.
Since Akt has three isoforms; namely, Akt1, Akt2, and Akt3, it was of interest to determine if α-TEA treatment was reducing the phosphorylated status of all three isoforms. Following α-TEA treatment the three Akt isoforms were immunoprecipitated with isoform specific antibodies, followed by western immunoblotting analyses using antibody specific for phospho-Akt. The protein levels of the isoforms were also determined. […] Treatment diminished the phosphorylation levels in all three Akt isoforms in both LNCaP and PC-3-GFP cells.
1×10^7 LNCaP or PC-3 3-GFP cells were treated with α-TEA and lysed in RIPA lysis buffer in the presence of protease inhibitors. […] Beads were washed 4 times with PBS and the proteins were released from the beads by boiling in Laemmli buffer for 5 min. Immunoprecipitated proteins were identified by SDS-PAGE followed by western immunoblot analyses.
Since Akt is activated, at least in part, by PI3K, we were interested to see if blockage of PI3K activity using the PI3K inhibitor LY294002 (Calbiochem-Novabiochem Corp. (San Diego, Calif.)) (Vlahos et al., 1994) would augment the apoptotic response induced by α-TEA.

[5] = system: LNCaP cells; assay: Apoptosis by DAPI staining, LNCaP
Description: Cells were plated at 2×10^6 in 100 mm cell culture plates, cultured overnight and washed with serum free media before transfection. Plasmids (0.7 μg or 4.2 of μg) or empty vector (pcDNA3) were mixed with 50 μl or 300 μl serum free media and 4 μl or 24 μl PLUS reagent (Invitrogen, CA) and incubated for 15 min at room temperature. Next 2 μl or 12 μl of Lipofectamine reagent (Invitrogen, CA) in 50 μl or 300 μl serum free media were added and the mixture incubated for another 15 min before adding to the cells in 0.5 ml or 5 ml serum free media. Cells were incubated with transfection reagents for 3 h and the growth media containing 2×FBS was added to the cells. Transfected cells were cultured overnight before α-TEA treatment. Transfection efficiency was determined to be 70% using GFP expressing plasmid.
(§1) Assessment of apoptosis based on nuclear morphology using 4′, 6-diamidino-2-phenylindole dihydrochloride (DAPI; Boehringer Mannheim Corp. Indianapolis, Ind.) has been described previously (Yu et al., 2003; Israel et al., 2000). Briefly, 1.5×10^5/well LNCaP or PC-3-GFP cells were plated in 12-well tissue culture plates and cultured overnight to allow cells to attach. On the next day, cells were treated with various concentrations of α-TEA and incubated for various time periods. At the end of treatments, cells were collected, washed with PBS, stained with 25 μl of 2 μg/ml DAPI, and viewed under a fluorescent microscope (model ICM 405 with a model 487701 filter, Zeiss). Cells which contained clearly condensed chromatin or fragmented nuclei were scored as apoptotic cells. ≧500 cells were counted in each sample. Apoptotic data are presented as percentage of apoptotic cells±S.D. for three independent experiments.
FOXO1 siRNA used in the study was purchased from Santa Cruz (Santa Cruz, Calif.). […] Transfection of human prostate cancer cells with FOXO1 siRNA or negative control siRNA was performed in 100 mm cell culture dishes at a density of 2×10^6 cells/dish using Lipofectamine 2000 (Invitrogen, Carlsbad, Calif.) and 300 pmol of siRNA duplex, resulting in a final siRNA concentration of 30 nM. siRNA transfected cells were incubated for 48-72 h prior to α-TEA treatment.

[6] = system: PC-3-GFP cells; assay: Apoptosis by DAPI staining, PC-3-GFP
Description: as §1

[7] = MCF-7 cells, 40 μM α-TEA 20 h, vs DMSO or control siRNA
[8] = MDA-MB-435 cells, 40 μM α-TEA 15 h, vs vehicle or control siRNA

Compound	reduction of level of PARP cleavage in α-TEA treated cells [1, 7]	reduction of PARP cleavage (p84 fragment) in α-TEA treated cells ([1]; MDA-MB-435 cells, 40 μM α-TEA 15 h, vs control siRNA or vehicle)	reduction of α-TEA-induced c-Jun phosphorylation [2, 7]	reduction of α-TEA-induced c-Jun phosphorylation [2, 8]	reduction of α-TEA-induced NOXA expression [3, 7]	reduction of α-TEA-induced NOXA expression [3, 8]	inhibition of levels of endogenously phosphorylated Akt ([4]; LNCaP cells, 10 μM α-TEA and/or 10 μM LY294002)	inhibition of levels of endogenously phosphorylated Akt ([4]; PC-3-GFP cells, 20 μM α-TEA and/or 10 μM LY294002)	induction of apoptosis (apoptotic cells) ([5]; 6 μM LY294002, 24 h)	induction of apoptosis (apoptotic cells) ([5]; 12 μM LY294002, 24 h)	induction of apoptosis (apoptotic cells) ([5]; 25 μM LY294002, 24 h)	apoptotic cells ([6]; 25 μM LY294002, 24 h)	apoptotic cells ([6]; 50 μM LY294002, 24 h)
O=C1c2ccccc2-c2n[nH]c3cccc1c23 [JNK inhibitor II]	29%	34%	68%	38%	~100%	41%							
O=c1cc(N2CCOCC2)oc2c(-c3ccccc3)cccc12 [LY294002, 2-(4-morpholinyl)-8-phenyl-4H-1-benzopyran-4-one, reference compound]							20%	60%	4.9%	13%	41%	6.2%	approximately 15%

From patent US20100292316A1, “IMPROVED THERAPEUTIC METHODS AND COMPOSITIONS COMPRISING CHROMAN RING COMPOUNDS” (Research Development Foundation, priority 2007, published 2010)
